Laboratory results: US20080221103A1, “New heterocyclic compounds” (ORCHID RESEARCH LABORATORIES LTD., priority 2007, published 2008)

How the values were obtained:
[1] = system: TNF-α; experiment: In vitro measurement of TNF-α production in LPS-stimulated human PBMC (ELISA); type: cell-based; conditions: LPS 1 μg/ml, 18 h; for inhibition at 1 µM: read-out: TNF-α Inhibition (%) at Conc. (1 μM); for inhibition at 10 µM: read-out: TNF-α Inhibition (%) at Conc. (10 μM)
Method: This assay determines the effect of test compounds on the production of TNF-α in human Peripheral Blood Mononuclear Cells (PBMC). Compounds were tested for their ability to inhibit the activity of TNF-α in human PBMC. PBMC were isolated from blood (of healthy volunteers) using BD Vacutainer CPT™ (Cell preparation tube, BD Bio Science) and suspended in RPMI medium (Physiol. Res. 52: 593-598, 2003). The test compounds were pre-incubated with PBMC (0.5 million/incubation well) for 15 min. at 37° C. and then stimulated with Lipopolysaccharide (Escherichia coli: B4; 1 μg/ml) for 18 h at 37° C. in 5% CO2. The levels of TNF-α in the cell culture medium were estimated using enzyme-linked immunosorbent assay performed in a 96 well format as per the procedure of the manufacturer (Cayman Chemical, Ann Arbor, USA).

[2] = biological target: T1, 5-LOX (Homo sapiens, UniProt P09917); experiment: 5-LOX activity; type: biochemical; conditions: source human PBML cells, LTB4 EIA
T1 construct: Source: Human PBML cells Substrate: Arachidonic acid; endogenous in cells; host or cells: Human PBML cells (peripheral blood mononuclear leukocytes)
T1 sequence (P09917 1-674): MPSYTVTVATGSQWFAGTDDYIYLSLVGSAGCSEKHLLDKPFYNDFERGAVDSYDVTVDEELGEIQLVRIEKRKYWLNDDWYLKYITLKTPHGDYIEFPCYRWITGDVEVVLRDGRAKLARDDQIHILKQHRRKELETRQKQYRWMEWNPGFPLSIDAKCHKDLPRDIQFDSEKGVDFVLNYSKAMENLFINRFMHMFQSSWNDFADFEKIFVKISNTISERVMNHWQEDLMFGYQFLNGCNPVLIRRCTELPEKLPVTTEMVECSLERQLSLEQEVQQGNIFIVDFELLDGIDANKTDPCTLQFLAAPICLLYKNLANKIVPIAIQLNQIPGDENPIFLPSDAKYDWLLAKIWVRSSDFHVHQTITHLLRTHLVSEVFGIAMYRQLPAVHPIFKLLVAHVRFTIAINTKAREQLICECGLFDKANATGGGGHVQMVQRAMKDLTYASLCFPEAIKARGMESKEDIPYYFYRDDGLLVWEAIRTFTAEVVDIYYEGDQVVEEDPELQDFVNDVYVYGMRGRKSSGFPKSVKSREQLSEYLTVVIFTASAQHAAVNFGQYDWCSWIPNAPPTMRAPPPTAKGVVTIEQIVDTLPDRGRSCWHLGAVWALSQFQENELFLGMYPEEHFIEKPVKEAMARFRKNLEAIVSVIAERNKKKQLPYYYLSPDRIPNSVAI
Method: The assay method involves the following conditions. Source: Human PBML cells Substrate: Arachidonic acid
Pre-incubation Time/Temp.: 15 min at 37° C.
Incubation Time/Temp.: 15 min at 37° C.
Incubation buffer: HBSS (Hank's balanced salt solution) Quantitation method: EIA quantitation of LTB4 Significance criteria: >50% of maximum stimulation or inhibition The results are tabulated as shown in the table V.

[3] = system: PDE4; experiment: PDE4 activity; type: biochemical; conditions: source human U937 cells
Method: PDE4 inhibition was measured by following a literature assay procedure (Cortizo J et al., J. Pharmacol., 1993, 108, 562-568). The assay method involves the following conditions.
Pre-Incubation Time/Temperature: 15 min at 25° C.
Incubation Time/Temperature. 20 min at 25° C.
Incubation buffer: 50 mM Tris-HCl, pH 7.5, 5 mM MgCl2 Quantitation method: Quantitation of [^3H]

[4] = biological target: T2, Thromboxane synthase (Homo sapiens, UniProt P24557); experiment: Thromboxane synthase activity; type: biochemical; conditions: source human platelets, TxB2 EIA
T2 construct: Source: Human Platelets; from tissue; host or cells: Human platelets
T2 sequence (P24557 1-533): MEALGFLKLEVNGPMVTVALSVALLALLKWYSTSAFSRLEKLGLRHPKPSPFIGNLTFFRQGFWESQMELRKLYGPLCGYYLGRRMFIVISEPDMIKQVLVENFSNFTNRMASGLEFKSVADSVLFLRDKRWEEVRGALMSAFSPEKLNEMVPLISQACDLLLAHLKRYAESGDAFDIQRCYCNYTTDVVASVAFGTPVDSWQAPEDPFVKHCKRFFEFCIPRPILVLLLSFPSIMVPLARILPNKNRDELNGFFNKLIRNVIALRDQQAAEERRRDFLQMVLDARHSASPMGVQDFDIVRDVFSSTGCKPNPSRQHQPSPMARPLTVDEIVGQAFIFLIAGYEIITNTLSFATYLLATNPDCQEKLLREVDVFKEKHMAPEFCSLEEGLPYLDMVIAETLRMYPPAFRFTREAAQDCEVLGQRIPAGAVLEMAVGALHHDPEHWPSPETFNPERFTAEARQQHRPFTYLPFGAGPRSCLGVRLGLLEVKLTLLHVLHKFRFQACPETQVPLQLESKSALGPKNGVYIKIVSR
Method: The assay method involves the following conditions.
Pre-incubation Time/Temp.: 15 min at 25° C.
Incubation Time/Temp.: 3 min at 25° C.
Incubation buffer: 10 mM Tris-HCl, pH 7.4 Quantitation method: EIA quantitation of TxB2 Significance criteria: >50% of maximum stimulation or inhibition The results are tabulated as shown in the table VI.

[5] = system: DSS Induced colitis; experiment: IBD-DSS model (DSS induced colitis test); type: in vivo; conditions: dosed Day 1 to 6, BALB/c mice, DSS 2%
Method: DSS Induced colitis test was performed as described by Axelsson et al., 1998. Male BALB/c mice were selected in the age of 7-8 weeks for the study. Colitis in mice was induced by providing DSS (2%) in the drinking water from day 1 to 6. Mice were dosed from Day 1 to 6 with test compound suspended in vehicle containing 0.25% carboxymethylcellulose and 0.5% Tween 80. The control animals received vehicle alone. Body weight and disease activity index was recorded daily during the experiment. After 6 days of treatment, animals were sacrificed; colon weight and colon length was recorded.

[6] = system: TNF-α; experiment: LPS induced sepsis for measurement of TNF-α inhibition in mice; type: in vivo; conditions: Mus musculus, 1.5 h; oral dosing; serum TNF-α 90 min after LPS i.p.
Method: The LPS induced sepsis model in mice was performed as described by Les sekut et al (J Lab Clin Med, 1994, 124, 813-820). Female Swiss albino mice were selected and the body weights were equivalent within each group. The mice were fasted for 20 h with free access to water. The mice were dosed orally with the test compound suspended in vehicle containing 0.5% Tween 80 in 0.25% Carboxy-methylcellulose sodium salt. The control mice were administered the vehicle alone. After 30 minutes of oral dosing, mice were injected with 500 μg of Lipopolysaccharide (Escherichia coli, LPS: B4 from Siga) in phosphate buffer saline solution into the intraperitoneal cavity of the mice. After 90 min of LPS administration mice were bled via retro-orbital sinus puncture. Blood samples were stored overnight at 4° C. Serum samples were collected by centrifuging the samples at 4000 rpm for 15 minutes at 4° C. Immediately the serum samples were analysed for TNF-α levels using commercially available mouse TNF-α ELISA kit (Amersham Biosciences) and assay was performed by the manufacturer instruction.

[7] = system: NCIH460, HCT116, U251; experiment: Anti-cancer screen (MTT), mean over three cell lines; type: cell-based; conditions: mean of NCIH460, HCT116, U251
Method: (§1) Experimental drugs are screened for anti-cancer activity in three cell lines for their GI50, TGI and LC50 values (using 5 concentrations for each compound). The cell lines are maintained in DMEM containing 10% fetal bovine serum. 96 well microtiter plates are inoculated with cells in 100 μL for 24 hours at 37° C., 5% CO2, 95% air and 100% relative humidity. 5000 HCT116 cells/well, 5000 NCIH460 cells/well, 10000 U251 cells/well and 5000 MDAMB231 cells/well are plated. A separate plate with these cell lines is also inoculated to determine cell viability before the addition of the compounds (T0).
(§2) Following 24-h incubation, experimental drugs are added to the 96 well plates. […]
(§3) Cells are incubated with compounds for 48 h followed by the addition of 10 μL 3-(4,5-Dimethyl-2-thiazolyl)-2,5-diphenyl-2H-tetrazolium (MTT) solution per well and a subsequent incubation at 37° C., 5% CO2, 95% air and 100% relative humidity, protected from light. […] Plates are agitated to ensure solution of the formazan crystals in DMSO and absorbance read at 570 nm.
(§4) Percent growth is calculated for each compound's concentration relative to the control and zero measurement wells (T0; viability right before compound addition). […]

[8] = system: HCT116 cells; experiment: Anti-cancer screen (MTT), HCT116; type: cell-based; conditions: Homo sapiens, HCT-116, 48 h, concentrations tested 0.01-100 μM
Method: as §1, §2, §3, §4

[9] = system: U251 cells; experiment: Anti-cancer screen (MTT), U251; type: cell-based; conditions: Homo sapiens, U-251, 48 h, concentrations tested 0.01-100 μM
Method: as §1, §2, §3, §4

[10] = system: NCIH460 cells; experiment: Anti-cancer screen (MTT), NCIH460; type: cell-based; conditions: Homo sapiens, NCI-H460, 48 h, concentrations tested 0.01-100 μM
Method: as §1, §2, §3, §4

Structure (SMILES)	inhibition at 1 µM [1]	inhibition at 10 µM [1]	also measured
CSc1nc(-c2cccs2)nc(NN)c1C#N [Example 13, 4-Hydrazinyl-6-(methylthio)-2-(thiophen-2-yl)pyrimidine-5-carbonitrile]	13%	71%	
COc1ccc(-c2nc(SC)c(C#N)c(N3CCN(c4ccccn4)CC3)n2)cc1 [Example 39, 2-(4-Methoxyphenyl)-4-(methylthio)-6-(4-(pyridin-2-yl)piperazin-1-yl)pyrimidine-5-carbonitrile]	19.2%	34%	
COc1ccc(-c2nc(NN3C(=O)C=C(C)C3=O)c(C#N)c(SC)n2)cc1 [Example 2, 4-(Thiomethyl)-2-(4-methoxyphenyl)-6-(3-methyl-2,5-dioxo-2,5-dihydro-1H-pyrrol-1-ylamino)pyrimidine-5-carbonitrile]	50.9%	95.4%	
CSc1nc(-c2ccccc2)nc(NN2C(=O)C=C(C)C2=O)c1C#N [Example 1, 4-(3-Methyl-2,5-dioxo-2,5-dihydro-1H-pyrrol-1-ylamino)-6-(methylthio)-2-phenylpyrimidine-5-carbonitrile]	57.3%	92.7%	inhibition at 10 µM [2]: 94%; PDE4 inhibition at 10 μM (%) [3]: 61%; inhibition at 10 µM [4]: 96%; IBD-DSS Model % Inhibition of DAI at 50 mg/kg [5]: 47%; ED50 [6]: 3.1 mg/kg
CSc1nc(-c2cccc(S(N)(=O)=O)c2)nc(NN2C(=O)C=C(C)C2=O)c1C#N [Example 10, 3-(5-Cyano-4-(3-methyl-2,5-dioxo-2,5-dihydro-1H-pyrrol-1-ylamino)-6-(methylthio)pyrimidin-2-yl)benzenesulfonamide]	20%	9.7%	
COc1ccc(-c2nc(NN3C(=O)C=C(C)C3=O)c(C#N)c(SC)n2)cc1S(N)(=O)=O [Example 6, 5-(5-Cyano-4-(3-methyl-2,5-dioxo-2,5-dihydro-1H-pyrrol-1-ylamino)-6-(methylthio)pyrimidin-2-yl)-2-methoxybenzenesulfonamide]		88%	GI50 [7]: 5.3 µM; GI50 [8]: 4.9 µM; GI50 [9]: 0.92 µM; GI50 [10]: 10.1 µM
